Assay results from patent US12539281B2 (priority 2021, dated 2026).

Experiments:
brain tumor = conditions: IA ethyl alcohol + IA or IV Anti-PD-1, mice
Description: The standard detailed protocol is followed. Primary antibodies used are FITC-conjugated Armenian hamster anti-mouse PD-1 (11-9985-82, ThermoFisher Scientific, San Diego, CA USA), and rat anti-mouse PD-1 (BE0146, Bio X Cell, West Lebanon, NH USA). The secondary antibody is ALEXA FLUOR® 647 goat anti-rabbit (ab150083, Abcam).

[1] = tested on: intracranial HER2-positive 4T1 breast cancer; conditions: IA ethyl alcohol with IV Trastuzumab vs IV Trastuzumab, mice with intracranial HER2-positive 4T1 tumor
syngeneic mouse glioma = conditions: IA ethyl alcohol+Anti-PD-1 antibody vs untreated control and IV Anti-PD-1 antibody
Procedure: Standard protocols for immunohistochemistry are followed. The primary antibody is rabbit anti-CD8 (ab4055, Abcam). Three independent experimental fields are examined, and images are analyzed and quantitated using ImageJ software of the National Institutes of Health.

[2] = tested on: blood-brain barrier (BBB); conditions: intracardiac EA 3%, 1%, 0.3%, 0.1%, and 0.01% in 2% EB, rats
Description: Set up the ultrasound imaging system before anesthetizing the rats; to anesthetize the rats in an induction chamber using 3-4% isoflurane in 100% oxygen at a rate of 0.2-0.5 L/min; to confirm proper anesthetization before performing imaging by pinching the toe, rolling the rats. • 2. Remove the fur over the thorax area using hair removal cream. • 3. Place the experimental animal on the imaging table in the supine position and secure both the upper and lower limbs with adhesive tape to avoid body movement during the procedure. • 4. Clean up the skin of the thorax area using a 10% povidone/iodine swab followed by a 70% ethanol swab. Apply a thick layer of gel to the thorax area of the animal. • 5. Mount the transducer and adjust the position until the left ventricle is clearly visible. • 6. […] To visualize pulsating blood, keep a small air column in the syringe; advance the syringe towards the animal thorax, adjust the needle trajectory using the ultrasound guidance, and enter the left ventricle, and to complete the IC injection within 30 seconds. • 7. Withdraw the needle, release that rat, and monitor until complete recovery from anesthesia
The rats are treated with varying concentrations of EA via intracardiac injection. […] Sham control (without treatment as negative control) is included in this experiment.

[3] = tested on: blood-brain barrier (BBB)
Procedure: Photographs of the rats in the prone and supine positions are taken for observation and further analysis.
Experimental rats are treated with varying concentrations of IA EA (in room temperature, 300 μl 5%, 3%, and 1% EA infused slowly in 1 minute, respectively) and are applied through the arterial catheter placed into the left internal carotid artery.
Experimental rats are treated with varying concentrations of IA EA (in room temperature, 300 μl 0.3%, 0.1%, and 0.01% EA infused slowly in 1 minute, respectively). They are applied through the arterial catheter placed into the left internal carotid artery.
The rapid visualization of the extravasated EB/albumin conjugate distribution after IA catheter delivery of 3% EA by fluorescence from EB dye by confocal microscopy is performed.
The fluorescence from EB dye permits the rapid visualization of extravasated EB/albumin conjugate distribution after IA catheter delivery of 3% EA. An untreated rat group is used as a control. IA 3% EA+2% EB solution treatment is used as the testing group.
The photographs of cryostatic brain sections from an untreated rat are stained with DAPI to illustrate the background nuclear staining under confocal imaging, respectively. The photo-/micrographs and magnified confocal images of the brain from the rat treated with IA 3% EA+2% EB solution are obtained for studies and comparison. The micrograph of the whole brain section is scanned by confocal microscopy to obtain the confocal images. The confocal images are further enlarged for observation.

[4] = tested on: blood-brain barrier (BBB); conditions: rats
Description: In this experiment, the microcatheter is placed in the left internal carotid artery (ICA). The left internal carotid artery (ICA) leads to the left hemisphere of the brain. (That is, the selected intracerebral artery is the left internal carotid artery (ICA); and the target area is the left hemisphere of the brain.)
Evans blue (EB) dye is used as the non-BBB permeable substance.
To validate the limited, localized, and targeted BBB opening mediated by intra-arterial EA around the area supplied by the corresponding artery, a microcatheter is inserted from the CCA, proceeded along the ICA, positioned at the origin of the MCA, and infused with 300 μL of a 3% EA in a 2% EB dye solution. The effect of the compromised BBB can be determined by observing the penetration of the EB dye (doesn't pass through the BBB in normal physical condition).

tight junction proteins = conditions: immediately after IA EA is administered
Description: The membrane and cytosolic proteins are extracted with a MEM-PER™ Plus Membrane Protein Extraction Kit (ThermoFisher Scientific, Waltham, MA USA). Proteins are separated by SDS-PAGE and transferred to nitrocellulose membranes. Primary antibodies used are rabbit anti-claudin-3 (ab15102), rabbit anti-claudin-5 (ab15106), rabbit anti-claudin-6 (ab99226), rabbit anti-JAM (ab125886), rabbit anti-occludin (ab222691, 1:200, Abcam, Cambridge, MA USA), and mouse anti-β-actin (66009, 1:1000, Proteintech, Rosemont, IL USA). Secondary antibodies used are HRP-conjugated goat anti-mouse (SA00001, 1:2500, Proteintech) and goat anti-rabbit (7074, 1:2500, Cell Signaling Technology).
Western Blot examined and quantified the tight junction proteins in brain tissues.

[5] = cited from earlier work
[6] = tested on: blood-brain barrier (BBB); remark: listed apart in the source
Description: EB dye is used as the non-BBB permeable substance. […] Photos of the perfused brain tissues are taken for observations and comparisons.
EB dye is used as a non-BBB-permeable substance. […] Photographs of the perfused brain tissues harvested at different time points are taken for observation and comparison, as shown in FIG. 9 of the drawings.
As a negative control, photographs of perfused brain tissues were taken from the following animals: the normal untreated mice; the mice were intravenously administered 2% EB; and the mice received the same dose of 0.3% EA mixed with a 2% EB solution intravenously as applied via intracardiac injection.

brain tissues = conditions: IA 0.3% ethyl alcohol vs normal untreated mouse
Procedure: Ultrathin sections of the brains previously processed with Pelco BioWave Pro (Pelco, Fresno, CA USA) are cut at 99 nm and collected on 200-mesh copper grids. The grids are post-stained in uranyl acetate (0.2%) and filtered for 15 min. Grids are further stained with lead citrate and filtered for 5 min. The Tecnai Spirit G2TEM (Nanoscience Initiative, Nicholas Terrace, New York, USA) with an installed Mega View camera is used to image the samples. The micrographs are illustrated in FIG. 5 of the drawings. The scale bar is 2 μm.

[7] = tested on: blood-brain barrier (BBB); assay: Microcatheter 3% EA-mediated delivery of Alexa Fluor 647-labeled anti-human IgG antibody, confocal imaging (Experiment 25); type: in vivo; conditions: 300 μL 3% EA via microcatheter then 10% labeled antibody, rats
Procedure: Following the perfusion of 300 μL of 3% EA through the intracerebral artery microcatheter, 10% Alexa Fluor® 647-labeled anti-human IgG antibody [EPR4421] (Ab307521, Abcam, UK) is slowly injected along the catheter (5-10 minutes). Two hours later, the brain tissue is perfused and removed after euthanasia. The pathological tissue sections are stained with DAPI, and confocal imaging is performed to evaluate the distribution of Alexa Fluor® 647-labeled anti-human IgG antibody in the rat brain. The experimental rats are injected with 300 μL of 0.9% NaCl without any concentration of EA as a negative control.
The blue color comes from the nuclei stained with DAPI. The pink color comes from the rabbit anti-human IgG antibody labeled with Alexa Fluor 647.

With `CCO` [ethyl alcohol] the “anti-PD-1 antibody brain tumor entry” value (brain tumor) was “can mediate checkpoint inhibitor anti-PD-1 antibody brain tumor entry”, the “Trastuzumab brain tumor entry (integrated optical density, confocal imaging)” value [1] was “significantly enhance” and the “replenishment of CD8+ T lymphocytes inside the tumor” value (syngeneic mouse glioma) was “significantly enhance the replenishment of CD8+ T lymphocytes”. For the same molecule, the “tinted blue color (extravasated Evans blue) in brain” value [2] was “observed in all treatment groups”, the “extravasated EB at the lowest concentration of EA” value ([3]; 300 μl 0.01% EA in 1 minute via left ICA catheter, rats) was “can still be visualized in the left hemisphere of the brain tissue” and the “extravasated EB in coronal sections” value ([3]; 300 μl 5%, 3%, and 1% EA in 1 minute via left ICA catheter, 2 hours after, rats) was “spreading out homogeneously through almost the whole section of the left hemisphere of the brain”. For the same molecule, the “autofluorescence from EB/albumin by confocal microscopy” value ([3]; IA 3% EA+2% EB, whole brain section, left hemisphere, rat) was “massive spreading of autofluorescence”, the “location of extravasated EB” value ([3]; left-side IA catheter, EA+2% EB, Fisher 344 rats) was “inside the left vitreous humor, but not inside the right” and the “extent of BBB opening (EB dye penetration)” value ([4]; 300 μL 3% EA in 2% EB, microcatheter at origin of MCA) was “site-specific BBB opening, which is limited to the area supplied by the MCA only”. The “delivery of EB dye to target area” value ([4]; EA 0.1% to 0.5%, microcatheter in left ICA) was “can be used to deliver EB dye to the left hemisphere of the brain”, the “time for which tight junction proteins in the BBB are reduced” value (tight junction proteins) was “about 120 minutes” and the solubility in water [5] was “infinitely soluble (fully miscible)”. The “extravasated EB dye in brain after intravenous EA” value ([6]; 0.3% EA mixed with 2% EB given intravenously (negative control route), mice) was “No extravasated EB dye in any parts of the brain”, the “BBB opening at 0 min time point” value ([6]; IA 0.3% EA then IV 2% EB, euthanized immediately, mice) was “immediate, homogeneous, and highly efficient BBB opening” and the “level of blue color observed in the brain as lagged time of EB administration increased” value ([6]; IA 0.3% ethyl alcohol, EB at 15, 60, 120, 240 min after, mice) was “decreased”. For the same molecule, the “interval window of the breached BBB” value ([6]; IA EA) was “about 2 hours”, the adverse effects ([6]; IA/intracardiac 0.3% EA, mice) was “occasional adverse effects, such as mild epilepsy, but no moderate to severe epilepsy and sudden death were observed” and the “duration of transient BBB opening” value ([6]; iv, 0.25 h) was no more than 120 min. The “ultrastructure of brain tissues (TEM)” value (brain tissues) was “many open spaces” and the “penetration and spread of Alexa Fluor 647-labeled anti-human IgG antibodies in the brain” value [7] was “significantly improve the penetration and spread”.
